According to patent publication US20240124408A1 (Sanofi, priority 2020, published 2024):

Tests used:
human TRPM8 = molecular target: T1, human TRPM8 (Homo sapiens, UniProt Q7Z2W7); experiment: In vitro human TRPM8 fluorescence calcium flux assay (recombinant CHO cells, Fluo4-AM, FDSS6000); format: cell-based; conditions: recombinant CHO cells expressing human TRPM8; menthol-related EC50, normalized to 100 μM menthol
T1 construct: expressed in transfected cells; host or cells: CHO (p658 mammalian expression vector)
Protocol: (§1) In Vitro Pig and Human TRPM8 Fluorescence Calcium Flux Assays
(§2) For functional expression of TRPM8, the full-length cDNA encoding human (NM_024080) and pig (XM_001927892.1) TRPM8 sequences were subcloned into p658 and pcDNA5/FRT/TO mammalian expression vectors, respectively. Engineered recombinant CHO cell lines expressing human or pig TRPM8 were generated. Culture media was Ham-F12 with 10% FCS for both lines, and for the pig cell line only 400 μg/ml hygromycin B and 30 μg/mL blasticidin were added as selection antibiotics (all reagents were obtained from Invitrogen, Fisher Scientific). Cells were grown in culture flasks up to 80% confluence where they were harvested using accutase (Sigma, MO, USA) to detach the cells by enzymatic dissociation and either seeded directly into assay plates or cryopreserved for future use.
(§3) For calcium flux assays, cells were plated into clear base poly-D-lysine coated 384-well plates (BD Biosciences, NJ USA) at a density of 15,000 cells per well in appropriate culture medium and grown overnight. The following day, all medium was removed then the cells were incubated with 2 μM of Fluo4-AM Dye (Molecular Probes) prepared in complete HBSS assay buffer containing 20 mM HEPES, 0.1% BSA, and 2.5 mM probenecid at room temperature for one hour. Following incubation, plates were inserted into a FDSS6000 instrument (Hamamatsu, Photonics, Japan) instrument, where cells were challenged with compounds of the formula (at varying concentrations) and intracellular calcium was measured kinetically for 3 min after addition.
(§4) This protocol allowed the determination of an EC50 value, from the sixteen-point dose response data, for each compound of the formula tested. Maximal fluorescence intensity achieved upon addition of 100 μM menthol (stock solution prepared in ethanol from solid, Sigma-Aldrich) was exported from the FDSS and further analyzed using IDBS XLFit 5. Data were normalized to the average 100 μM menthol response (maximum control wells) included in each plate. The dose response curves from the average of wells for each data point were analyzed by using nonlinear regression of sigmoidal dose response (formula 205). Finally, the (menthol-related) EC50 values (Half maximal effective concentration) were calculated with the best-fit dose curve determined by IDBS XLFit 5 software.

pig TRPM8 = molecular target: T2, pig TRPM8 (Sus scrofa, UniProt F1SM15); experiment: In vitro pig TRPM8 fluorescence calcium flux assay (recombinant CHO cells, Fluo4-AM, FDSS6000); format: cell-based; conditions: recombinant CHO cells expressing pig TRPM8; menthol-related EC50, normalized to 100 μM menthol
T2 construct: expressed in transfected cells; host or cells: CHO (pcDNA5/FRT/TO vector; hygromycin B and blasticidin selection)
Protocol: as §1, §2, §3, §4

T1 sequence (Q7Z2W7 whole entry): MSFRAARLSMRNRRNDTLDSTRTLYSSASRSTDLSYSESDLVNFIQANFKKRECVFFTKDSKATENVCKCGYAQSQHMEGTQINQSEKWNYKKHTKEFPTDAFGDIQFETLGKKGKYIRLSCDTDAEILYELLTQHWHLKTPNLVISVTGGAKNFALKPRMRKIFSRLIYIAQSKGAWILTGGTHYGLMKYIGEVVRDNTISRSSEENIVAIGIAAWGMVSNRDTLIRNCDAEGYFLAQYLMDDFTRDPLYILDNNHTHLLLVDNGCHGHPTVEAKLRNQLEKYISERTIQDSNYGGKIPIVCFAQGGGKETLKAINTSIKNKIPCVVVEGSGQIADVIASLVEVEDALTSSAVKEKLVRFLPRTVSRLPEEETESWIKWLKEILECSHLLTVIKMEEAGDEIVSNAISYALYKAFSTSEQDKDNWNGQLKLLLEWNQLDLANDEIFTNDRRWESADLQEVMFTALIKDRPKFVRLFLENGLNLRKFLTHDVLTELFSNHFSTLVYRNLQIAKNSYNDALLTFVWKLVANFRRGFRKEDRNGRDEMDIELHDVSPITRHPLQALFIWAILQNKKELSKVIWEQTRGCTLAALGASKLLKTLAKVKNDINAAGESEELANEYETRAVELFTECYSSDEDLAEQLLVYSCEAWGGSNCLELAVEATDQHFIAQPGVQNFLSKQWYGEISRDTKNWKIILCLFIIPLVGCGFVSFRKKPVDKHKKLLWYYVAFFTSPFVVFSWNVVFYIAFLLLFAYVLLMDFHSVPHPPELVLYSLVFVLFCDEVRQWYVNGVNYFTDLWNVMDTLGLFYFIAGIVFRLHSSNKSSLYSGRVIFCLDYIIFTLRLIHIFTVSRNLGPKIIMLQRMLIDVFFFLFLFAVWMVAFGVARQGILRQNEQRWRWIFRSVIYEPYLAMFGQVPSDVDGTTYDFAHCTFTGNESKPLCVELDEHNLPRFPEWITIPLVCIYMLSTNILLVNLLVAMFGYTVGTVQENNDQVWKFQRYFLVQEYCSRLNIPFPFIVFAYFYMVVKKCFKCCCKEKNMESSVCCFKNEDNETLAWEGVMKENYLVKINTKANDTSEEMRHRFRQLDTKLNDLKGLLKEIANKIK
T2 sequence (F1SM15 1-1104): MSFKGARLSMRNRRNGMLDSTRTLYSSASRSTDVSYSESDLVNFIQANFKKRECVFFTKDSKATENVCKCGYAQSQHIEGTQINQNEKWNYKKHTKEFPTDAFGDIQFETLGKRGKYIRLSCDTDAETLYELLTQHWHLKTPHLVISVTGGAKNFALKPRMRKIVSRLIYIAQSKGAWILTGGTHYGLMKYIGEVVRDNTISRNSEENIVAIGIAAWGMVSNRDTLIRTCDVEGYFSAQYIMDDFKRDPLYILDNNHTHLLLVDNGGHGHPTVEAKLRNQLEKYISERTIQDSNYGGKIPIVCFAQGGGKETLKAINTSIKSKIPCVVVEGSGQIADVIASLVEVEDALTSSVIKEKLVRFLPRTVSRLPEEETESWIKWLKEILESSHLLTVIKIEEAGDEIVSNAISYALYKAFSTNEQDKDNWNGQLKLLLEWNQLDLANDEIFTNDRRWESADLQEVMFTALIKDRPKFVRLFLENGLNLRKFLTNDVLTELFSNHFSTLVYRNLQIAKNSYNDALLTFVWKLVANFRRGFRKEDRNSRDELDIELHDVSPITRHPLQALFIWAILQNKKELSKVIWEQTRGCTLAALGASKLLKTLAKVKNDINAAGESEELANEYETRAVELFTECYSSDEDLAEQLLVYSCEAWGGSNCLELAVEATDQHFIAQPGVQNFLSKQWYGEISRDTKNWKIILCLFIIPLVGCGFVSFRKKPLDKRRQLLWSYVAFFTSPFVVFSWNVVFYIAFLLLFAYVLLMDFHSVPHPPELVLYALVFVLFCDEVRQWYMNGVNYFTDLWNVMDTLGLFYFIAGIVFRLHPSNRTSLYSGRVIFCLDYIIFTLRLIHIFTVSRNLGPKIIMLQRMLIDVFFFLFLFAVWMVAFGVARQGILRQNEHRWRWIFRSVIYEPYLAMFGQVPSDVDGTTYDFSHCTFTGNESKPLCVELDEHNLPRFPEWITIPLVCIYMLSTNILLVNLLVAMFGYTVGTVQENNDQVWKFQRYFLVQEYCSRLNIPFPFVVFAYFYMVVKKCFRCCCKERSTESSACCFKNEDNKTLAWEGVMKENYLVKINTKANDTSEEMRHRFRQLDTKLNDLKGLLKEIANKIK

Row | SMILES | EC50 (human TRPM8) | EC50 (pig TRPM8)
1 | CC(C)[C@@H]1CC[C@@H](C)C[C@@]1(O)C(=O)NCC(=O)c1ccc(O)c(O)c1 [Example 100, (1S,2S,5R)—N-(2-(3,4-dihydroxyphenyl)-2-oxoethyl)-1-hydroxy-2-isopropyl-5-methylcyclohexane-1-carboxamide] | 2.2 nM | 2.9 nM
2 | COc1cc(CCNC(=O)[C@]2(O)C[C@H](C)CC[C@H]2C(C)C)ccc1O [Example 114, (1S,2S,5R)-1-hydroxy-N-[2-(4-hydroxy-3-methoxy-phenyl)ethyl]-2-isopropyl-5-methyl-cyclohexanecarboxamide] | 59.8 nM | 28.2 nM
3 | COc1ccc(C(=O)CNC(=O)[C@]2(O)C[C@H](C)CC[C@H]2C(C)C)cc1 [Example 121, (1S,2S,5R)-1-hydroxy-2-isopropyl-N-[2-(4-methoxyphenyl)-2-oxo-ethyl]-5-methyl-cyclohexanecarboxamide] | 18.7 nM | 4.9 nM
4 | COc1cc(CCNC(=O)[C@]2(O)C[C@H](C)CC[C@H]2C(C)C)cc(OC)c1O [Example 130, (1S,2S,5R)-1-hydroxy-N-[2-(4-hydroxy-3,5-dimethoxy-phenyl)ethyl]-2-isopropyl-5-methyl-cyclohexanecarboxamide] | 433 nM | 185 nM
5 | CC(C)[C@@H]1CC[C@@H](C)C[C@@]1(O)C(=O)NCC1OCCc2ccccc21 (single isomer, unassigned) [Example 98] | 52.8 nM | 64.7 nM
6 | CC(C)[C@@H]1CC[C@@H](C)C[C@@]1(O)C(=O)NC[C@@H](NC(=O)[C@@H](C)N)c1ccccc1 [Example 62, (1S,2S,5R)—N—((S)-2-((R)-2-aminopropanamido)-2-phenylethyl)-1-hydroxy-2-isopropyl-5-methylcyclohexane-1-carboxamide] | 1.6 nM | 2.3 nM
7 | CC(C)[C@@H]1CC[C@@H](C)C[C@@]1(O)C(=O)NCCc1cccc(CCC(=O)O)c1 [Example 87, 3-(3-(2-((1S,2S,5R)-1-hydroxy-2-isopropyl-5-methylcyclohexane-1-carboxamido)ethyl)phenyl)propanoic acid] | 982 nM | 259 nM
8 | CC(C)[C@@H]1CC[C@@H](C)C[C@@]1(O)C(=O)NCC1(c2cccc(COC3CCCCO3)c2)COC1 (stereo partly drawn) [Example 101, (1S,2S,5R)-1-hydroxy-2-isopropyl-5-methyl-N-((3-(3-(((tetrahydro-2H-pyran-2-yl)oxy)methyl)phenyl)oxetan-3-yl)methyl)cyclohexane-1-carboxamide] | 376 nM | 174 nM
9 | COC[C@H](NC(=O)[C@]1(O)C[C@H](C)CC[C@H]1C(C)C)C(O)c1ccccc1 (stereo in doubt) [Example 122, (1S,2S,5R)-1-hydroxy-N-[(1S,2S)-2-hydroxy-1-(methoxymethyl)-2-phenyl-ethyl]-2-isopropyl-5-methyl-cyclohexanecarboxamide] | 7510 nM | 749 nM
10 | CC(C)[C@@H]1CC[C@@H](C)C[C@@]1(O)C(=O)NCCc1cnccn1 [Example 131, (1S,2S,5R)-1-hydroxy-2-isopropyl-5-methyl-N-(2-pyrazin-2-ylethyl)cyclohexanecarboxamide] | 603 nM | 267 nM
11 | CC(C)[C@@H]1CC[C@@H](C)C[C@@]1(O)C(=O)NCC(O)(c1ccccc1)C(F)(F)F (single isomer, unassigned) [Example 83] | 168 nM | 136 nM
12 | CC(C)[C@@H]1CC[C@@H](C)C[C@@]1(O)C(=O)NCCc1ccc(S(N)(=O)=O)cc1 [Example 118, (1S,2S,5R)-1-hydroxy-2-isopropyl-5-methyl-N-[2-(4-sulfamoylphenyl)ethyl]cyclohexanecarboxamide] | 557 nM | 264 nM
13 | COc1ccc(OC)c(CCNC(=O)[C@]2(O)C[C@H](C)CC[C@H]2C(C)C)c1 [Example 128, (1S,2S,5R)-N-[2-(2,5-dimethoxyphenyl)ethyl]-1-hydroxy-2-isopropyl-5-methyl-cyclohexanecarboxamide] | 303 nM | 212 nM
14 | Cc1ccc(CCNC(=O)[C@]2(O)C[C@H](C)CC[C@H]2C(C)C)cc1 [Example 60, (1S,2S,5R)-1-hydroxy-2-isopropyl-5-methyl-N-(4-methylphenethyl)cyclohexane-1-carboxamide] | 43.5 nM | 7.1 nM
15 | COC(=O)CCOc1ccccc1CCNC(=O)[C@]1(O)C[C@H](C)CC[C@H]1C(C)C [Example 75, methyl 3-(2-(2-((1S,2S,5R)-1-hydroxy-2-isopropyl-5-methylcyclohexane-1-carboxamido)ethyl)phenoxy)propanoate] | 84 nM | 109 nM

Results, then the compound that gave them:

Row | EC50 (human TRPM8) | EC50 (pig TRPM8) | SMILES
16 | 3.6 nM | 3.4 nM | CC(C)[C@@H]1CC[C@@H](C)C[C@@]1(O)C(=O)NCC1(O)CCCc2ccccc21 (mixture of isomers) [Example 177, (1S,2S,5R)-1-hydroxy-N-(((1RS)-hydroxy-1,2,3,4-tetrahydronaphthalen-1-yl)methyl)-2-isopropyl-5-methylcyclohexane-1-carboxamide]
17 | 2.1 nM | 1.1 nM | CC(C)[C@@H]1CC[C@@H](C)C[C@@]1(O)C(=O)NCC(=O)c1ccc(F)cc1 [Example 135, (1S,2S,5R)-N-[2-(4-fluorophenyl)-2-oxo-ethyl]-1-hydroxy-2-isopropyl-5-methyl-cyclohexanecarboxamide]
18 | 882 nM | 516 nM | CC(C)[C@@H]1CC[C@@H](C)C[C@@]1(O)C(=O)NCc1cccc(CO)c1 [Example 161, (1S,2S,5R)-1-hydroxy-N-[[3-(hydroxymethyl)phenyl]methyl]-2-isopropyl-5-methyl-cyclohexanecarboxamide]
19 | 1260 nM | 358 nM | CC(C)[C@@H]1CC[C@@H](C)C[C@@]1(O)C(=O)NC[C@H](O)c1ccccc1 [Example 178, (1S,2S,5R)-1-hydroxy-N-((2R)-2-hydroxy-2-phenylethyl)-2-isopropyl-5-methylcyclohexane-1-carboxamide]
20 | 4.8 nM | 1.8 nM | CC(C)[C@@H]1CC[C@@H](C)C[C@@]1(O)C(=O)NCC1(O)CCc2c(Cl)cccc21 (stereo partly drawn) [Example 144, (1S,2S,5R)-N-[(4-chloro-1-hydroxy-indan-1-yl)methyl]-1-hydroxy-2-isopropyl-5-methyl-cyclohexanecarboxamide]
21 | 20.9 nM | 27.4 nM | CC(C)[C@@H]1CC[C@@H](C)C[C@@]1(O)C(=O)NCCc1c[nH]c2ccc(O)cc12 [Example 169, (1S,2S,5R)-1-hydroxy-N-[2-(5-hydroxy-1H-indol-3-yl)ethyl]-2-isopropyl-5-methyl-cyclohexanecarboxamide]
22 | 303 nM | 79.1 nM | CC(C)[C@@H]1CC[C@@H](C)C[C@@]1(O)C(=O)NCC(=O)OCc1ccccc1 [Example 132, benzyl 2-[[(1S,2S,5R)-1-hydroxy-2-isopropyl-5-methyl-cyclohexanecarbonyl]amino]acetate]
23 | 76.2 nM | 24.1 nM | COc1cccc(C(F)(F)CNC(=O)[C@]2(O)C[C@H](C)CC[C@H]2C(C)C)c1 [Example 188, (1S,2S,5R)—N-[2,2-difluoro-2-(3-methoxyphenyl)ethyl]-1-hydroxy-2-isopropyl-5-methyl-cyclohexanecarboxamide]
24 | 85 nM | 46 nM | COc1ccc2c(c1)OCC2CNC(=O)[C@]1(O)C[C@H](C)CC[C@H]1C(C)C (stereo partly drawn) [Example 154, (1S,2S,5R)-1-hydroxy-2-isopropyl-N-[(6-methoxy-2,3-dihydrobenzofuran-3-yl)methyl]-5-methyl-cyclohexanecarboxamide]
25 | 1.1 nM | 1.3 nM | CC(C)[C@@H]1CC[C@@H](C)C[C@@]1(O)C(=O)NCC1(O)CCc2ccccc21 (single isomer, unassigned) [Example 176]
26 | 1160 nM | 901 nM | CC(C)[C@@H]1CC[C@@H](C)C[C@@]1(O)C(=O)NC1CCC(F)(F)CC1 [Example 147, (1S,2S,5R)-N-(4,4-difluorocyclohexyl)-1-hydroxy-2-isopropyl-5-methyl-cyclohexanecarboxamide]
27 | 37.1 nM | 60.3 nM | CC(C)[C@@H]1CC[C@@H](C)C[C@@]1(O)C(=O)N[C@@H](CO)Cc1ccc(O)cc1 [Example 170, (1S,2S,5R)-1-hydroxy-N-[(1R)-1-(hydroxymethyl)-2-(4-hydroxyphenyl)ethyl]-2-isopropyl-5-methyl-cyclohexanecarboxamide]
